Experimental data taken from patent US20180320217A1, “METHODS FOR SAMPLING AND MEASURING ORAL LAVAGE PROTEINS” (The Procter & Gamble Company, priority 2017, published 2018).
Several values for one entry are separate records, joined by “and”; a condition that tells them apart may be missing. Identical values can stand only once. Entries after “also recorded” stand apart in the source; their conditions may differ. Counter-ions that a name gives are not always drawn.

Key:
Malate dehydrogenase [1] = molecular target: T1, Malate dehydrogenase (Sus scrofa, UniProt P00346); assay: Effect of concentrations of NAD+ on formation of formazan dyes (FIG. 5); type: biochemical; parameters: purchased Sigma-Aldrich 10127248001 / 10127914001 (MDH); conditions: 2 mM WST-8, 15 mM malate, 1.5 units malate dehydrogenase
T1 sequence (P00346 25-338): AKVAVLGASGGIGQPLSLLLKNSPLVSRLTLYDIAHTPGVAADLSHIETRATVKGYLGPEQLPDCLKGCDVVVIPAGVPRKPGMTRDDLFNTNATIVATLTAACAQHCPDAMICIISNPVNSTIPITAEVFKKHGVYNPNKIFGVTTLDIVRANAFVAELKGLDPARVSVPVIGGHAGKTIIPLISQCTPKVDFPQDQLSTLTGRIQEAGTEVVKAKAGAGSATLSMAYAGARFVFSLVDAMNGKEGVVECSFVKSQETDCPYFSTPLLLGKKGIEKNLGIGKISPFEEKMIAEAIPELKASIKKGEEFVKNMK
Description: To determine optimal conditions for quantifying enzymes in the gingival brush samples, oral lavage and gingival plaques, an experiment was carried out to determine the effect of NAD+ on conversion of tetrazolium salts to formazan dyes. […] Absorbance was taken at every 5 minutes for 2 hours.

[2] = Formation of formazan dyes: NADH and 1-methoxy PMS, absence of malate (TABLE 15); type: biochemical
diaphorase [3] = assay: Formation of formazan dyes: only diaphorase and malate (TABLE 14); type: biochemical, Clostridium kluyveri; conditions: mean of three experiments
[4] = tested on: Malate dehydrogenase and diaphorase; assay: Formation of formazan dyes: Malate dehydrogenase, diaphorase and malate (TABLE 10); type: biochemical, pig heart
oral lavage [5] = assay: Formation of formazan dyes: oral lavage and diaphorase, not malate (TABLE 11); type: biochemical, human
diaphorase [6] = assay: Formation of formazan dyes: NADH and diaphorase, absence of malate (TABLE 7); type: biochemical, Clostridium kluyveri; conditions: NADH and diaphorase, absence of malate
diaphorase [7] = assay: Formation of formazan dyes: only diaphorase, not malate (TABLE 13); type: biochemical, Clostridium kluyveri; conditions: mean of three experiments
[8] = Formation of formazan dyes: control buffer and 1-Methoxy PMS, absence of malate (TABLE 21); type: biochemical; conditions: monosodium salt
Malate dehydrogenase [9] = molecular target: T1, Malate dehydrogenase; assay: Formation of formazan dyes: Malate dehydrogenase and 1-Methoxy PMS, absence of malate (TABLE 17); type: biochemical, pig heart; parameters: L-malate dehydrogenase (pig heart); purchased Sigma-Aldrich 10127248001 / 10127914001
diaphorase [10] = assay: Formation of formazan dyes: NADH, diaphorase and malate (TABLE 8); type: biochemical, Clostridium kluyveri; conditions: NADH, diaphorase and malate
[11] = Formation of formazan dyes: NADH, malate and 1-methoxy PMS (TABLE 16); type: biochemical; conditions: monosodium salt
[12] = Formation of formazan dyes: control buffer, malate and 1-Methoxy PMS (TABLE 22); type: biochemical
oral lavage [13] = assay: Formation of formazan dyes: oral lavage and 1-Methoxy PMS, absence of malate (TABLE 19); type: biochemical, human; conditions: monosodium salt
oral lavage [14] = assay: Formation of formazan dyes: oral lavage, malate and diaphorase (TABLE 12); type: biochemical, human; conditions: oral lavage, malate and diaphorase
[15] = tested on: Malate dehydrogenase and diaphorase; assay: Formation of formazan dyes: Malate dehydrogenase and diaphorase, absence of malate (TABLE 9); type: biochemical, pig heart
diaphorase [16] = assay: Effect of concentrations of tetrazolium salts on formation of formazan dyes (FIGS. 4A-4G); type: biochemical; conditions: 15 mM NADH+H, 20 μg diaphorase, pH 7.5; FIGS. 4A to 4G
Description: On the idea that higher concentrations of tetrazolium salts in the assay buffer would likely result in more formazan dyes in the reaction, various concentrations of tetrazolium salts were added to a reaction buffer and the formation of formazan dyes were measured at 0, 30 and 60 minutes. […] The reactions were performed at room temperature. Absorbance was taken at 0, 30 and 60 minutes.

[17] = UV absorbance analysis of formazan products, TABLE 6; conditions: in the presence of 1-methoxy PMS
Malate dehydrogenase [18] = molecular target: T1, Malate dehydrogenase; assay: Effect of concentrations of malate on formation of formazan dyes (FIG. 6); type: biochemical; parameters: purchased Sigma-Aldrich 10127248001 / 10127914001 (MDH); conditions: 2 mM WST-8, 128.5 μM NAD+, 1.5 units malate dehydrogenase
Description: Substrate concentrations are important parameters in an enzymatic assay. An experiment was carried out to determine the effect of malate concentrations on formation of formazan dyes. […] Absorbance was measured every 5 minutes for 2 hours. […] But at low concentrations from 0.001 mM to 15.6 mM, formation of formazan dyes was positively correlated with malate concentrations.

NC(=O)c1ccc[n+]([C@@H]2O[C@H](COP(=O)([O-])OP(=O)(O)OC[C@H]3O[C@@H](n4cnc5c(N)ncnc54)[C@H](O)[C@@H]3O)[C@@H](O)[C@H]2O)c1 [NAD+, Nicotinamide adenine dinucleotide]
amount of formazan formation versus NAD+ concentration (Malate dehydrogenase [1]): proportional to the concentrations of NAD+

COc1cc([N+](=O)[O-])ccc1-[n+]1nc(-c2ccc(S(=O)(=O)[O-])cc2S(=O)(=O)[O-])nn1-c1ccc([N+](=O)[O-])cc1.[Na+] [WST-8, 5-(2,4-disulfophenyl)-3-(2-methoxy-4-nitrophenyl)-2-(4-nitrophenyl)-2H-tetrazolium, inner salt, monosodium salt]
formation of formazan dyes / precipitates with 1-methoxy PMS and NADH [2]: converted to formazan dyes quickly | Absorbance, formation of formazan dyes (Means) ([2]; monosodium salt): 3.65 and 3.66 and 3.67 | Absorbance, formation of formazan dyes (Means) (diaphorase [3]; 0 h): 0.10 | Absorbance, formation of formazan dyes (Means) (diaphorase [3]; 1 h): 0.14 | Absorbance, formation of formazan dyes (Means) (diaphorase [3]; 2 h): 0.16 | Absorbance, formation of formazan dyes (Means) (diaphorase [3]; 3 h): 0.19 | Absorbance, formation of formazan dyes (Means) (diaphorase [3]; 4 h): 0.21 | Absorbance, formation of formazan dyes (Means) (diaphorase [3]; 6 h): 0.26 | Absorbance, formation of formazan dyes (Means) (diaphorase [3]; 8 h): 0.31 | Absorbance, formation of formazan dyes (Means) (diaphorase [3]; 10 h): 0.35 | Absorbance, formation of formazan dyes (Means) (diaphorase [3]; 12 h): 0.38 | Formation of formazan dyes, absorbance, Means 0 h ([4]; Malate dehydrogenase, diaphorase and malate, 0 h): 1.13 | Formation of formazan dyes, absorbance, Means 1 h ([4]; Malate dehydrogenase, diaphorase and malate, 1 h): 1.93 | Formation of formazan dyes, absorbance, Means 2 h ([4]; Malate dehydrogenase, diaphorase and malate, 2 h): 2.36 | Formation of formazan dyes, absorbance, Means 3 h ([4]; Malate dehydrogenase, diaphorase and malate, 3 h): 2.65 | Formation of formazan dyes, absorbance, Means 4 h ([4]; Malate dehydrogenase, diaphorase and malate, 4 h): 2.86 | Formation of formazan dyes, absorbance, Means 6 h ([4]; Malate dehydrogenase, diaphorase and malate, 6 h): 3.12 | Formation of formazan dyes, absorbance, Means 8 h ([4]; Malate dehydrogenase, diaphorase and malate, 8 h): 3.26 | Formation of formazan dyes, absorbance, Means 10 h ([4]; Malate dehydrogenase, diaphorase and malate, 10 h): 3.30 | Formation of formazan dyes, absorbance, Means 12 h ([4]; Malate dehydrogenase, diaphorase and malate, 12 h): 3.28 | conversion to reduced formazan dyes ([4]; malate dehydrogenase, diaphorase and malate (TABLE 10), monosodium salt): converted to reduced formazan dyes in a time-dependent fashion; also recorded: able to catalyze the reduction | Formation of formazan dyes, absorbance, Means 0 h (oral lavage [5]; oral lavage and diaphorase, not malate, 0 h): 0.59 | Formation of formazan dyes, absorbance, Means 1 h (oral lavage [5]; oral lavage and diaphorase, not malate, 1 h): 0.83 | Formation of formazan dyes, absorbance, Means 2 h (oral lavage [5]; oral lavage and diaphorase, not malate, 2 h): 0.87 | Formation of formazan dyes, absorbance, Means 3 h (oral lavage [5]; oral lavage and diaphorase, not malate, 3 h): 0.84 | Formation of formazan dyes, absorbance, Means 4 h (oral lavage [5]; oral lavage and diaphorase, not malate, 4 h): 0.82 | Formation of formazan dyes, absorbance, Means 6 h (oral lavage [5]; oral lavage and diaphorase, not malate, 6 h): 0.88 | Formation of formazan dyes, absorbance, Means 8 h (oral lavage [5]; oral lavage and diaphorase, not malate, 8 h): 1.00 | Formation of formazan dyes, absorbance, Means 10 h (oral lavage [5]; oral lavage and diaphorase, not malate, 10 h): 1.00 | Formation of formazan dyes, absorbance, Means 12 h (oral lavage [5]; oral lavage and diaphorase, not malate, 12 h): 1.01 | reduction to formazan dyes by pooled oral lavage (oral lavage [5]; pooled oral lavage of high bleeder group, diaphorase, no added malate (TABLE 11)): partially reduced to formazan dyes | Formation of formazan dyes, absorbance, Means 0 h (diaphorase [6]; 0 h): 3.54 | Formation of formazan dyes, absorbance, Means 1 h (diaphorase [6]; 1 h): 3.72 | Formation of formazan dyes, absorbance, Means 2 h (diaphorase [6]; 2 h): 3.77 | Formation of formazan dyes, absorbance, Means 3 h (diaphorase [6]; 3 h): 3.77 | Formation of formazan dyes, absorbance, Means 4 h (diaphorase [6]; 4 h): 3.63 | Formation of formazan dyes, absorbance, Means 6 h (diaphorase [6]; 6 h): 3.64 | Formation of formazan dyes, absorbance, Means 8 h (diaphorase [6]; 8 h): 3.66 | Formation of formazan dyes, absorbance, Means 10 h (diaphorase [6]; 10 h): 3.65 | Formation of formazan dyes, absorbance, Means 12 h (diaphorase [6]; 12 h): 3.67 | Absorbance, formation of formazan dyes (Means) (diaphorase [7]; 0 h): 0.22 | Absorbance, formation of formazan dyes (Means) (diaphorase [7]; 1 h): 0.38 | Absorbance, formation of formazan dyes (Means) (diaphorase [7]; 2 h): 0.46 | Absorbance, formation of formazan dyes (Means) (diaphorase [7]; 3 h): 0.48 | Absorbance, formation of formazan dyes (Means) (diaphorase [7]; 4 h): 0.43 | Absorbance, formation of formazan dyes (Means) (diaphorase [7]; 6 h): 0.46 | Absorbance, formation of formazan dyes (Means) (diaphorase [7]; 8 h): 0.44 | Absorbance, formation of formazan dyes (Means) (diaphorase [7]; 10 h): 0.44 | Absorbance, formation of formazan dyes (Means) (diaphorase [7]; 12 h): 0.47 | Absorbance, formation of formazan dyes (Means) [8]: 0.44 and 0.55 and 0.49 and 0.62 | reduction by malate dehydrogenase alone (Malate dehydrogenase [9]): did not catalyze the reduction | Absorbance, formation of formazan dyes (Means) (Malate dehydrogenase [9]; monosodium salt): 0.35 and 0.47 | Formation of formazan dyes, absorbance, Means 0 h (diaphorase [10]; 0 h): 3.06 | Formation of formazan dyes, absorbance, Means 1 h (diaphorase [10]; 1 h): 3.36 | Formation of formazan dyes, absorbance, Means 2 h (diaphorase [10]; 2 h): 3.47 | Formation of formazan dyes, absorbance, Means 3 h (diaphorase [10]; 3 h): 3.53 | Formation of formazan dyes, absorbance, Means 4 h (diaphorase [10]; 4 h): 3.50 | Formation of formazan dyes, absorbance, Means 6 h (diaphorase [10]; 6 h): 3.54 | Formation of formazan dyes, absorbance, Means 8 h (diaphorase [10]; 8 h): 3.54 | Formation of formazan dyes, absorbance, Means 10 h (diaphorase [10]; 10 h): 3.51 | Formation of formazan dyes, absorbance, Means 12 h (diaphorase [10]; 12 h): 3.45 | Absorbance, formation of formazan dyes (Means) [11]: 3.37 and 3.42 and 3.41 | Means absorbance 0 h [12]: 0.19 | Means absorbance 1 h [12]: 0.20 | Means absorbance 2 h [12]: 0.23 | Means absorbance 3 h [12]: 0.26 | Absorbance, formation of formazan dyes (Means) (oral lavage [13]): 1.03 and 1.38 and 1.68 and 1.86 | Formation of formazan dyes, absorbance, Means 0 h (oral lavage [14]; 0 h): 0.51 | Formation of formazan dyes, absorbance, Means 1 h (oral lavage [14]; 1 h): 0.70 | Formation of formazan dyes, absorbance, Means 2 h (oral lavage [14]; 2 h): 0.80 | Formation of formazan dyes, absorbance, Means 3 h (oral lavage [14]; 3 h): 0.84 | Formation of formazan dyes, absorbance, Means 4 h (oral lavage [14]; 4 h): 0.85 | Formation of formazan dyes, absorbance, Means 6 h (oral lavage [14]; 6 h): 0.91 | Formation of formazan dyes, absorbance, Means 8 h (oral lavage [14]; 8 h): 1.05 | Formation of formazan dyes, absorbance, Means 10 h (oral lavage [14]; 10 h): 1.09 | Formation of formazan dyes, absorbance, Means 12 h (oral lavage [14]; 12 h): 1.33 | Formation of formazan dyes, absorbance, Means 0 h ([15]; Malate dehydrogenase and diaphorase, absence of malate, 0 h): 1.13 | Formation of formazan dyes, absorbance, Means 1 h ([15]; Malate dehydrogenase and diaphorase, absence of malate, 1 h): 1.84 | Formation of formazan dyes, absorbance, Means 2 h ([15]; Malate dehydrogenase and diaphorase, absence of malate, 2 h): 2.15 | Formation of formazan dyes, absorbance, Means 3 h ([15]; Malate dehydrogenase and diaphorase, absence of malate, 3 h): 2.32 | Formation of formazan dyes, absorbance, Means 4 h ([15]; Malate dehydrogenase and diaphorase, absence of malate, 4 h): 2.41 | Formation of formazan dyes, absorbance, Means 6 h ([15]; Malate dehydrogenase and diaphorase, absence of malate, 6 h): 2.62 | Formation of formazan dyes, absorbance, Means 8 h ([15]; Malate dehydrogenase and diaphorase, absence of malate, 8 h): 2.72 | Formation of formazan dyes, absorbance, Means 10 h ([15]; Malate dehydrogenase and diaphorase, absence of malate, 10 h): 2.80 | Formation of formazan dyes, absorbance, Means 12 h ([15]; Malate dehydrogenase and diaphorase, absence of malate, 12 h): 2.89 | reduction of tetrazolium dye in the absence of substrate malate ([15]; malate dehydrogenase and diaphorase (TABLE 9)): partially reduced | concentration of tetrazolium salt at which absorbance reached peaks (diaphorase [16]): 2 mM

O=[N+]([O-])c1ccc(-n2nc(-c3ccccc3)n[n+]2-c2ccc(/N=N/c3ccc(S(=O)(=O)O)cc3)cc2S(=O)(=O)[O-])cc1 [WST-9, 2-(4-Nitrophenyl)-5-phenyl-3-[4-(4-sulfophenylazo)-2-sulfophenyl]-2H-tetrazolium, monosodium salt]
solubility of formazan products [17]: form precipitates

O=C(O)CC(O)C(=O)O (stereo not drawn) [malate]
malate concentrations that inhibited production of formazan dyes (Malate dehydrogenase [18]): above 65 mM
